Several values for one entry are separate records, joined by “and”; a condition that tells them apart may be missing. Identical values can stand only once. Blank lines part the entries; values can stand above or below the compound they belong to.
Columns and labels:
[1] = system: P. aeruginosa ATCC27853; assay: microbe, parasite or virus in culture; parameters: MICa: MIC of the antibiotic / MICac: MIC of the antibiotic in the combination: unit not given beside the values; settings: strain ATCC27853
Method: (§1) The MIC tests were performed in triplicate using broth microdilution in accordance with Clinical and Laboratory Standards Institute (CLSI) recommendations (http://iacld.ir/DL/public/CLSI-2018-M100-S28.pdf). Briefly, drugs were two-fold diluted in MHB and mixed with an equal volume of bacterial suspensions containing approximately 1 × 10^6 CFU/mL in 96-well microliter plate. After 18 h incubation at 37 °C, the MIC values were defined as the lowest concentrations of antibiotics with no visible growth of bacteria. […] Otherwise, 1/4 MIC of the peptide was used in the combination. […] If needed, membrane compounds PG, PE, PC, CL or LPS, or membrane stabilizers MgCl2 or CaCl2, or efflux pumps inhibitor PAβN were added to the broth medium to clarify the effect of other substances on the synergy between peptide and antibiotics. All the tests were performed in triplicate.
(§2) The fractional inhibitory concentration (FIC) indices were calculated using the previously described formula FICI = FICa + FICb = MICac/MICa + MICbc/MICb. The FICI was interpreted according to EUCAST [65] as follows: synergistic, FICI≤0.5; additive, 0.5<FICI≤1; indifferent, 1<FICI<2; antagonistic, FICI ≥2. For the FICI calculations, twice the highest concentration tested was used in the cases where the MIC was not reached.

[2] = system: P. aeruginosa PAK; assay: microbe, parasite or virus in culture; parameters: MICa: MIC of the antibiotic / MICac: MIC of the antibiotic in the combination: unit not given beside the values; settings: strain PAK
Method: as §1, §2

[3] = system: P. aeruginosa PA14; assay: microbe, parasite or virus in culture; parameters: MICa: MIC of the antibiotic / MICac: MIC of the antibiotic in the combination: unit not given beside the values; settings: strain PA14; with D-11 at MICbc 4; unit not given
Method: as §1, §2

[4] = system: P. aeruginosa NR-31040; assay: microbe, parasite or virus in culture; parameters: MICa: MIC of the antibiotic / MICac: MIC of the antibiotic in the combination: unit not given beside the values; settings: strain NR-31040; with D-11 at MICbc 4; unit not given
Method: as §1, §2

[5] = system: P. aeruginosa NR-31041; assay: microbe, parasite or virus in culture; parameters: MICa: MIC of the antibiotic / MICac: MIC of the antibiotic in the combination: unit not given beside the values; settings: strain NR-31041
Method: as §1, §2

[6] = system: P. aeruginosa AUMC-Pa-2; settings: strain AUMC-Pa-2; antibiotic + D-11 (MICb/MICbc 64/4)
Method: as §1, §2

[7] = system: P. aeruginosa AUMC-Pa-4; assay: microbe, parasite or virus in culture; settings: strain AUMC-Pa-4; with D-11 at MICbc 4; unit not given
Method: as §1, §2

[8] = system: P. aeruginosa AUMC-Pa-5; assay: microbe, parasite or virus in culture; settings: strain AUMC-Pa-5
Method: as §1, §2

[9] = system: P. aeruginosa AUMC-Pa-6; assay: microbe, parasite or virus in culture; settings: strain AUMC-Pa-6
Method: as §1, §2

[10] = system: P. aeruginosa AUMC-Pa-3; assay: microbe, parasite or virus in culture; settings: strain AUMC-Pa-3; with D-11 at MICbc 4; unit not given
Method: as §1, §2

[11] = system: clinical P. aeruginosa isolates; assay: microbe, parasite or virus in culture; settings: antibiotic alone
Method: The bacterial strains, primers and plasmids used in this study are listed in S5 Table. […] Bacteria were cultured in LB medium or cation-adjusted Muller-Hinton broth (CA-MHB) at 37 °C with agitation at 220 rpm. All the antibiotics and chemical compounds used in this study were purchased from Sigma-Aldrich.
as §1

[12] = system: P. aeruginosa PAO1; assay: microbe, parasite or virus in culture; settings: S3 Table, PAO1
Method: as §1, §2

[13] = with D-11 at MICbc 4, unit not given
[14] = antibiotic + D-11 (MICb/MICbc 64/4)

MICac: MIC of the antibiotic in the combination [1, 13]: 8
MICac: MIC of the antibiotic in the combination [2, 13]: 16
MICac: MIC of the antibiotic in the combination [3]: 32
MICac: MIC of the antibiotic in the combination [4]: 32
MICac: MIC of the antibiotic in the combination [5, 13]: 16
MICac: MIC of the antibiotic in the combination [7]: 32
MICac: MIC of the antibiotic in the combination [8, 13]: 32
MICac: MIC of the antibiotic in the combination [9, 13]: 32
MICac: MIC of the antibiotic in the combination [10]: 8
Compound: CC[C@H]1OC(=O)[C@H](C)[C@@H](O[C@H]2C[C@@](C)(OC)[C@@H](O)[C@H](C)O2)[C@H](C)[C@@H](O[C@@H]2O[C@H](C)C[C@H](N(C)C)[C@H]2O)[C@](C)(O)C[C@@H](C)C(=O)[C@H](C)[C@@H](O)[C@]1(C)O [Erythromycin]
FICI ([1]; antibiotic + D-11 (MICb/MICbc 32/4)): 0.188
FICI [2, 14]: 0.188
FICI [5, 14]: 0.188
FICI [6]: 0.313
FICI [8, 14]: 0.313
FICI [9, 14]: 0.313

Antibiotic sensibility (MIC) of clinical P. aeruginosa isolate AUMC-Pa-1 ([11]; strain AUMC-Pa-1): 1 µM
Antibiotic sensibility (MIC) of clinical P. aeruginosa isolate AUMC-Pa-2 ([11]; strain AUMC-Pa-2): 0.5 µM
Antibiotic sensibility (MIC) of clinical P. aeruginosa isolate AUMC-Pa-3 ([11]; strain AUMC-Pa-3): 0.0625 µM
Antibiotic sensibility (MIC) of clinical P. aeruginosa isolate AUMC-Pa-4 ([11]; strain AUMC-Pa-4): 0.5 µM
Antibiotic sensibility (MIC) of clinical P. aeruginosa isolate AUMC-Pa-5 ([11]; strain AUMC-Pa-5): 0.5 µM
Antibiotic sensibility (MIC) of clinical P. aeruginosa isolate AUMC-Pa-6 ([11]; strain AUMC-Pa-6): 2 µM
Antibiotic sensibility (MIC) of clinical P. aeruginosa isolate HM-214 ([11]; strain HM-214): 2 µM
Antibiotic sensibility (MIC) of clinical P. aeruginosa isolate NR-31040 ([11]; strain NR-31040): 8 µM
Antibiotic sensibility (MIC) of clinical P. aeruginosa isolate NR-31041 ([11]; strain NR-31041): 4 µM
MICac: the MIC for the antibiotic in the combination ([12]; with 2 μM D-11): 2/2 μM
MICac: the MIC for the antibiotic in the combination ([12]; with 4 μM D-11): 4 µM
MICa: the MIC of antibiotics ([12]; antibiotic alone): 2/2 μM and 2 μM
Compound: Neomycin
FICI ([12]; antibiotic + 4 μM D-11): 2.125

Reference: paper PMC8445441, “Elucidating the mechanism by which synthetic helper peptides sensitize Pseudomonas aeruginosa to multiple antibiotics” (PLoS Pathogens, 2021)
